{
  "source": "patent US10111901B2",
  "about": "“Beta-glucan in combination with anti-cancer agents affecting the tumor microenvironment” (Biothera, Inc., priority 2014, dated 2018)",
  "key": {"monocytes": {"test_system": "monocytes", "experiment": "β-glucan binding to monocytes in whole blood, serum cross-over", "assay_type": "cell-based, human", "method": "To test this, M2 macrophages were prepared as described above with a few modifications. The whole blood of a low binder was spun down to remove the plasma and then the cells were reconstituted with serum obtained from a high binder. The reconstituted blood was treated with vehicle or β-glucan (25 μg/mL) for 2 hours at 37° C. The monocytes were evaluated for binding by using anti-β-glucan specific monoclonal antibody and subsequent flow cytometry."}, "[1]": {"test_system": "tumor cell lines, including NSCLC, breast, pancreatic, colon, and B cell lymphoma", "experiment": "PD-L1 expression on tumor cell lines incubated with supernatant of M2 macrophage/MoDC and T cell co-culture", "assay_type": "cell-based", "details": "supernatants of proliferation assays, 48 hours", "method": "M2 macrophages and MoDC were prepared as described above. The macrophages and the MoDC were subsequently used in T cell proliferation assays as described previously. The supernatants from these proliferation assays were harvested and incubated with various tumor cell lines, including NSCLC, breast, pancreatic, colon, and B cell lymphoma. The expression of PD-L1 on these tumor cell lines were evaluated post 48 hours by flow cytometry. Shown in FIG. 15 are representative results from 3 different experiments."}, "Tregs (CD4+CD25+)": {"test_system": "Tregs (CD4+CD25+)", "experiment": "Treg suppression assay", "assay_type": "cell-based, human", "method": "Since these PBMC cultures contain Tregs, the suppressive ability of Tregs seem to be altered in the presence of soluble β-glucan and studies were carried out to determine if β-glucan affected Treg suppression. Plasma from β-glucan-treated or vehicle-treated whole blood (described above) was added to 25,000 isolated CFSE-labeled autologous CD4 T cells (CD4^+CD25^−) along with increasing numbers of isolated autologous Tregs (CD4^+CD25^+) resulting in wells with increasing ratios. Cells were then stimulated with 50,000 T cell activating CD3/28 beads for 3 days. Proliferation was subsequently measured by CFSE dilution and quantified by Division Index, which was used to calculate the % suppression of Tregs in the co-culture. % suppression=100−(Division Index of Treg well/Division Index of 1:0 well)[…].\nThe Treg suppression assay was conducted as described above, and after 3 days of co-culture, supernatants were analyzed for IFN-gamma production."}, "M1 macrophages": {"test_system": "M1 macrophages", "experiment": "Flow cytometry of M1/M2-specific markers on M1 macrophages derived from vehicle- or β-glucan-treated whole blood", "assay_type": "cell-based, human", "method": "(§1) CD14^+ monocytes from human whole blood were enriched using Ficoll gradient and magnetic bead separation. Enriched monocytes (5×10^5 cells per mL) were then cultured in either M1-polarizing (XVivo 10 media (Lonza Group) supplemented with 5% autologous serum and 100 ng/mL recombinant human granulocyte macrophage colony-stimulating factor (rhGM-CSF) (R&D Systems) or M2-polarizing (XVivo 10 media supplemented with 10% autologous serum and 50 ng/mL recombinant human macrophage colony-stimulating factor (rhM-CSF) (R&D Systems) conditions for 6 days. In experiments performed to evaluate the effect of β-glucan, whole blood was first incubated with vehicle (sodium citrate buffer) or 25 μg/mL soluble β-glucan for 2 hours at 37° C. and then the monocytes were isolated and differentiated. Morphology was checked before macrophages were harvested for phenotypic analysis. Culture medium of the day 6 macrophage culture (MCM) was collected, spun down to remove contaminated cell pellet and then frozen down for subsequent cytokine analysis by ELISA or used to setup a co-culture with CD3 & CD28-stimulated CD4 T cells (MCM-CD4 T) for evaluation of either surface markers or CD4 T cell proliferation. The macrophages were used to setup a co-culture with CD3 & CD28- or CD3 only-stimulated CD4 T cells (Mac-CD4 T) on day 6 for evaluation of either surface marker modulation or effect on CD4 T cell proliferation. For Mac-CD4 T cell proliferation study, M1 or M2 macrophages were cultured with CD3 & CD28- or CD3 only-stimulated, CFSE-labeled, autologous CD4 T cells at a 1:10 ratio. T cell proliferation was measured at the end of the experiment (day 9-day 11) by flow cytometry, and results are graphically shown as CFSE-dilution peaks. The assessment of CD3-only stimulated T cells was always done on day 11. Quantitative results were reported as the Division Index (the average number of cell divisions a population underwent) calculated for each of the triplicate wells in each of the culture conditions. Culture supernatants of Mac-CD4 T co-cultures were collected for subsequent cytokine analysis.\n(§2) M1 and M2 macrophages from vehicle- or β-glucan-treated whole blood were prepared as described above. […] In addition, surface expression of CD86 was enhanced as well as both protein and mRNA levels of PD-L1 (FIG. 2B).\n(§3) Expression of a panel of markers was evaluated by flow cytometry for vehicle- and β-glucan-treated, high binder-derived M1 and M2 macrophages (CD163 was evaluated twice).\n(§4) CD163 and CD86 were evaluated by flow cytometry for vehicle- and β-glucan-treated, low binder-derived M1 and M2 macrophages."}, "M2 macrophages": {"test_system": "M2 macrophages", "experiment": "Flow cytometry of M1/M2-specific markers on M2 macrophages derived from vehicle- or β-glucan-treated whole blood", "assay_type": "cell-based, human", "method": "as §1, §2, §3, §4\nPhenotypic and functional evaluation of β-glucan-treated M2a and β-glucan-treated M2 macrophages in the presence of immunosuppressive cytokines was carried out. M2 or M2a macrophages were prepared as described above. On day 3, tumor-conditioned medium (TCM) was added M2 macrophage cultures to account for 70% of the volume of the culture and then evaluated for CD163 expression and functional activity on day 6. […] M2a macrophages were cultured in IL-4 as described above.\nThe β-glucan-treated M2a macrophages cultured in IL-4 and M2 macrophages cultured in TCM were first evaluated for CD163 and CD86 expression. CD163 and CD86 were evaluated by flow cytometry and median MFI was calculated for isotype control staining and surface antigen staining and the results are shown in Table 5.\nMonocytes or M2 macrophages were prepared as described above. On day 3, TCM was added to account for 70% of the volume of the culture and then evaluated for PD-L1 expression with TCM and then again when co-cultured with CD4 T cells."}, "[2]": {"details": "M1 macrophages, high binder, 25 μg/mL"}, "[3]": {"details": "M2 macrophages cultured in TCM (70% of volume, from day 3), immunosuppressive conditions"}, "[4]": {"details": "M2 macrophages, high binder, 25 μg/mL"}},
  "data": [
    {"substance": "β(1,6)-[poly-(1,3)-D-glucopyranosyl]-poly-β(1,3)-D-glucopyranose [β-glucan]", "values": [
      {"measurement": "binding of β-glucan to monocytes", "setting": "monocytes; low binder's whole blood with high binder's serum containing higher levels of ABA", "value": "significantly higher binding"},
      {"measurement": "binding of β-glucan to monocytes", "setting": "monocytes; whole blood of a low binder", "value": "did not bind"},
      {"measurement": "PD-L1 expression on the tumor cell lines", "setting": "[1]", "value": "enhances PD-L1 expression"},
      {"measurement": "IFN-gamma production", "setting": "Tregs (CD4+CD25+); Treg suppression assay, 3 days, 8:1 T cell to Treg ratio", "value": "enhanced IFN-gamma production"},
      {"measurement": "suppressive capacity of Tregs", "setting": "Tregs (CD4+CD25+); plasma from β-glucan-treated whole blood vs vehicle-treated", "value": "significant decreases"},
      {"measurement": "CD86 median MFI", "setting": "M1 macrophages; [2]", "value": 2113},
      {"measurement": "CD163 (1) median MFI", "setting": "M1 macrophages; [2]", "value": 158},
      {"measurement": "CD163 (2) median MFI", "setting": "M1 macrophages; [2]", "value": 230},
      {"measurement": "CD206 median MFI", "setting": "M1 macrophages; [2]", "value": 816},
      {"measurement": "CD209 median MFI", "setting": "M1 macrophages; [2]", "value": 318},
      {"measurement": "CD274 (PD-L1) median MFI", "setting": "M1 macrophages; [2]", "value": 5563},
      {"measurement": "HLA-DR median MFI", "setting": "M1 macrophages; M1 macrophages, high binder, whole blood treated with 25 μg/mL soluble β-glucan 2 hours", "value": 667},
      {"measurement": "CD86 median MFI", "setting": "M1 macrophages; M1 macrophages, low binder", "value": 3179},
      {"measurement": "CD163 median MFI", "setting": "M1 macrophages; M1 macrophages, low binder", "value": 132},
      {"measurement": "M1 macrophage phenotype (panel of M1/M2-specific markers)", "setting": "M1 macrophages; β-glucan pretreatment of whole blood", "value": "did not affect M1 macrophage phenotype"},
      {"measurement": "CD86 median MFI", "setting": "M2 macrophages; [3]", "value": 2697},
      {"measurement": "CD163 median MFI", "setting": "M2 macrophages; [3]", "value": 1112},
      {"measurement": "CD86 median MFI", "setting": "M2 macrophages; [4]", "value": 2953},
      {"measurement": "CD163 (1) median MFI", "setting": "M2 macrophages; [4]", "value": 759},
      {"measurement": "CD163 (2) median MFI", "setting": "M2 macrophages; [4]", "value": 1153},
      {"measurement": "CD206 median MFI", "setting": "M2 macrophages; [4]", "value": 1056},
      {"measurement": "CD209 median MFI", "setting": "M2 macrophages; [4]", "value": 801},
      {"measurement": "CD274 (PD-L1) median MFI", "setting": "M2 macrophages; [4]", "value": 4427},
      {"measurement": "HLA-DR median MFI", "setting": "M2 macrophages; [4]", "value": 1007},
      {"measurement": "CD86 median MFI", "setting": "M2 macrophages; M2 macrophages, low binder", "value": 2284},
      {"measurement": "CD163 median MFI", "setting": "M2 macrophages; M2 macrophages, low binder", "value": 3315},
      {"measurement": "phenotypic markers on monocyte-derived macrophages", "setting": "M2 macrophages; low binders, M1/M2 polarizing conditions (data not shown)", "value": "did not modulate"},
      {"measurement": "surface expression of CD86", "setting": "M2 macrophages; β-glucan-treated M2 macrophages", "value": "enhanced"},
      {"measurement": "surface expression of PD-L1", "setting": "M2 macrophages; β-glucan-treated M2 macrophages cultured in TCM", "value": "higher surface expression"},
      {"measurement": "HLA-DR expression", "setting": "M2 macrophages; β-glucan-treated M2 macrophages cultured in TCM (data not shown)", "value": "higher"},
      {"measurement": "PD-L1 expression", "setting": "M2 macrophages; β-glucan-treated M2 macrophages in TCM co-cultured with CD4 T cells", "value": "increased expression"},
      {"measurement": "mean fluorescence intensity (MFI) of CD163", "setting": "M2 macrophages; β-glucan-treated M2 macrophages, FIG. 2A", "value": "downmodulated"},
      {"measurement": "protein and mRNA levels of PD-L1", "setting": "M2 macrophages; β-glucan-treated M2 macrophages, FIG. 2B", "value": "enhanced"}
    ]}
  ]
}
